Data published in ChEMBL document CHEMBL6092194, “Development of membrane-targeting chalcone derivatives as antibacterial agents against multidrug-resistant bacteria” (Eur J Med Chem, 2024).
Activity calls are given as the source filed them. The rule behind the calls is not given here.

Columns and labels:
Escherichia coli [1] = test: Antibacterial activity against Escherichia coli ATCC25922 infected in sepsis mouse model assessed as log reduction in bacterial load in spleen at 5 mg/kg pre-infected with bacteria for 1 hrs followed by compound administration at 12 hrs interval for 2 days relative to control; type: functional; settings: time 2 day
Cell membrane [2] = test: Disruption of cell membrane in Staphylococcus aureus ATCC43300 assessed as fold increase in protein leakage at 8 microg/ml relative to control; type: subcellular; settings: dose 8.0 µg/ml
Escherichia coli [3] = test: Induction of morphological changes in Escherichia coli ATCC25922 assessed as rough appearance of cell membrane by scanning electron microscopic analysis; type: functional, organism-based
Staphylococcus aureus [4] = test: Antibacterial activity against Staphylococcus aureus ATCC43300 infected in sepsis mouse model assessed as log reduction in bacterial load in spleen at 5 mg/kg pre-infected with bacteria for 1 hrs followed by compound administration at 12 hrs interval for 2 days relative to control; type: functional; settings: time 2 day
[5] = Toxicity in BALB/c mouse assessed as survival rate at 20 to 50 mg/kg, ip administered for 7 days relative to control; type: organism-based; settings: in vivo, dose 20-50 mg/kg, time 7 day
Cell membrane [6] = test: Induction of cytoplasmic membrane depolarization in Staphylococcus aureus ATCC43300 assessed as increase in fluorescence intensity at 8 microg/ml measured after 24 mins by DiSC3(5) dye-based fluorescence assay; settings: dose 8.0 µg/ml
Cell membrane [7] = test: Disruption of cell membrane in Staphylococcus aureus ATCC43300 assessed as appearance of blue fluorescence by DAPI staining based fluorescence microscopic analysis
Staphylococcus aureus [8] = test: Antibacterial activity against Staphylococcus aureus ATCC43300 infected in sepsis mouse model assessed as log reduction in bacterial load in liver at 10 mg/kg pre-infected with bacteria for 1 hrs followed by compound administration at 12 hrs interval for 2 days relative to control; type: functional; settings: time 2 day
Staphylococcus aureus [9] = test: Antibacterial activity against Staphylococcus aureus ATCC43300 infected in sepsis mouse model assessed as reduction in spleen damage at 5 to 10 mg/kg pre-infected with bacteria for 1 hrs followed by compound administration at 12 hrs interval for 2 days by H and E staining based analysis; type: functional, organism-based; settings: dose 5-10 mg/kg, time 2.0 day
Escherichia coli [10] = test: Antibiofilm activity against Escherichia coli ATCC25922 assessed as inhibition of biofilm formation; type: functional, organism-based
Staphylococcus aureus [11] = test: Induction of morphological changes in Staphylococcus aureus ATCC43300 assessed as rough appearance of cell membrane by scanning electron microscopic analysis; type: functional, organism-based
Escherichia coli [12] = test: Antibacterial activity against Escherichia coli ATCC25922 infected in sepsis mouse model assessed as reduction in spleen damage at 5 to 10 mg/kg pre-infected with bacteria for 1 hrs followed by compound administration at 12 hrs interval for 2 days by H and E staining based analysis; type: functional, organism-based; settings: dose 5-10 mg/kg, time 2.0 day
Cell membrane [13] = test: Disruption of cell membrane in Staphylococcus aureus ATCC43300 assessed as increase in DNA leakage; settings: dose 1-8 µg/ml
Escherichia coli [14] = test: Bactericidal activity against Escherichia coli ATCC25922 assessed as bacterial killing at 8 times of MIC measured after 8 hrs by time-kill kinetics assay relative to control; type: functional
Cell membrane [15] = test: Induction of outer membrane permeabilization in Escherichia coli ATCC25922 assessed as increase in fluorescence intensity incubated for 20 mins by NPN uptake assay; type: subcellular; settings: dose 0.5-8 µg/ml
Staphylococcus aureus [16] = test: Antibacterial activity against Staphylococcus aureus ATCC43300 infected in sepsis mouse model assessed as reduction in kidney damage at 5 to 10 mg/kg pre-infected with bacteria for 1 hrs followed by compound administration at 12 hrs interval for 2 days by H and E staining based analysis; type: functional, organism-based; settings: dose 5-10 mg/kg, time 2.0 day
Staphylococcus aureus [17] = test: Disruption of preformed biofilm in Staphylococcus aureus ATCC43300 assessed as eradication of biofilm at 8 microg/ml relative to control; type: functional; settings: dose 8 µg/ml
Klebsiella pneumoniae = test: Antibacterial activity against Klebsiella pneumoniae ATCC10031 by broth microdilution assay; type: functional
Staphylococcus aureus [18] = test: Antibiofilm activity against Staphylococcus aureus ATCC43300 assessed as inhibition of biofilm formation; type: functional, organism-based
Cell membrane [19] = test: Induction of cytoplasmic membrane depolarization in Staphylococcus aureus ATCC43300 assessed as increase in fluorescence intensity measured after 24 mins by DiSC3(5) dye-based fluorescence assay; settings: dose 0.5-8 µg/ml
Cell membrane [20] = test: Induction of inner membrane permeabilization in Escherichia coli ATCC25922 assessed as increase in fluorescence intensity incubated for 20 mins by PI uptake assay; type: subcellular; settings: dose 0.5-8 µg/ml
[21] = Toxicity in ip dosed BALB/c mouse assessed as maximum tolerated dose measured after 7 days; type: organism-based; settings: in vivo, time 7 day
Escherichia coli [22] = test: Antibacterial activity against penicillin-susceptible Escherichia coli ATCC25922 by broth microdilution method; type: functional
Staphylococcus aureus [23] = test: Antibacterial activity against Staphylococcus aureus ATCC43300 infected in sepsis mouse model assessed as reduction in liver damage at 5 to 10 mg/kg pre-infected with bacteria for 1 hrs followed by compound administration at 12 hrs interval for 2 days by H and E staining based analysis; type: functional, organism-based; settings: dose 5-10 mg/kg, time 2.0 day
Staphylococcus aureus [24] = test: Bactericidal activity against Staphylococcus aureus ATCC43300 in Mueller Hinton Broth; type: functional
[25] = Selectivity index, ratio of HC50 for hemolytic activity in red blood cells (unknown origin) to MIC for antibacterial activity against penicillin-susceptible Escherichia coli ATCC25922; type: toxicity, cell-based, RBC; settings: read-out: Selectivity Index
Staphylococcus aureus [26] = test: (§1) Antibacterial activity against Staphylococcus aureus ATCC43300 infected in sepsis mouse model assessed as reduction in inflammatory cell infiltration in spleen at 10 mg/kg pre-infected with bacteria for 1 hrs followed by compound administration at 12 hrs interval for 2 days by H and E staining based analysis; type: functional, organism-based; settings: time 2.0 day
Staphylococcus aureus [27] = test: Antibacterial activity against Staphylococcus aureus ATCC43300 infected in sepsis mouse model assessed as reduction in spleen inflammation at 5 to 10 mg/kg pre-infected with bacteria for 1 hrs followed by compound administration at 12 hrs interval for 2 days by H and E staining based analysis; type: functional, organism-based; settings: dose 5-10 mg/kg, time 2.0 day
Cell membrane [28] = test: Disruption of cell membrane in Escherichia coli ATCC25922 assessed as appearance of red fluorescence by PI staining based fluorescence microscopic analysis; type: subcellular
[29] = Ratio of MBC for Escherichia coli ATCC25922 in presence of 50% plasma to MBC for Escherichia coli ATCC25922 in Mueller Hinton Broth; type: functional
Staphylococcus aureus [30] = test: Antibacterial activity against Staphylococcus aureus ATCC43300 infected in sepsis mouse model assessed as log reduction in bacterial load in liver at 5 mg/kg pre-infected with bacteria for 1 hrs followed by compound administration at 12 hrs interval for 2 days relative to control; type: functional; settings: time 2 day
Cell membrane [31] = test: Disruption of cell membrane in Staphylococcus aureus ATCC43300 assessed as increase in intracellular ROS level by measuring fold increase in fluorescence intensity at 8 microg/ml by DCFH-DA staining based fluorescence analysis relative to blank control group; settings: dose 8.0 µg/ml
Staphylococcus aureus [32] = test: as §1, with “liver” for “spleen”; type: functional, organism-based; settings: time 2.0 day
Staphylococcus aureus [33] = test: Antibacterial activity against Staphylococcus aureus ATCC43300 infected in sepsis mouse model assessed as reduction in liver inflammation at 5 to 10 mg/kg pre-infected with bacteria for 1 hrs followed by compound administration at 12 hrs interval for 2 days by H and E staining based analysis; type: functional, organism-based; settings: dose 5-10 mg/kg, time 2.0 day
Escherichia coli [34] = test: Antibiofilm activity against Escherichia coli ATCC25922 assessed as inhibition of biofilm formation at 8 microg/ml relative to control; type: functional

## CCCCCCOc1cc[n+](CCCOc2ccc(/C=C/C(=O)c3ccc(OCCC[n+]4ccc(OCCCCCC)cc4)cc3)cc2)cc1.[Br-].[Br-]
Escherichia coli [1]
  log(activity): 1.92
Cell membrane [2]
  fold change (FC): 7.5
Escherichia coli [3]
  Activity: Active
Staphylococcus aureus [4]
  log(activity): 1.02
[5]
  survival at 168 h: 100%
Cell membrane [6]
  Activity: Active; Fluorescence Intensity Surpassed The Melittin Group
Cell membrane [7]
  Activity: Active
Staphylococcus aureus [8]
  log(activity): 2.13
Staphylococcus aureus [9]
  Activity: Active
Escherichia coli [10]
  Activity: Dose-dependent-effect
Staphylococcus aureus [11]
  Activity: Active
Escherichia coli [12]
  Activity: Active
Cell membrane [13]
  Activity: Dose-dependent-effect
Escherichia coli [14]
  Activity: 100%
Cell membrane [15]
  Activity: Dose-dependent-effect
Staphylococcus aureus [16]
  Activity: Active
Staphylococcus aureus [17]
  Activity: 20.8%
Klebsiella pneumoniae
  MIC: 1 µg/mL
Staphylococcus aureus [18]
  Activity: Dose-dependent-effect
Cell membrane [19]
  Activity: Dose-dependent-effect
Cell membrane [20]
  Activity: Dose-dependent-effect
[21]
  MTD at 168 h: 50 mg/kg
Escherichia coli [22]
  MIC: 1 µg/mL
Staphylococcus aureus [23]
  Activity: Active
Staphylococcus aureus [24]
  MBC: 4 µg/mL
[25]
  selectivity ratio: 329
Staphylococcus aureus [26]
  Activity: inactive
Staphylococcus aureus [27]
  Activity: Active
Cell membrane [28]
  Activity: Active
[29]
  Ratio: <2
Staphylococcus aureus [30]
  log(activity): 0.91
Cell membrane [31]
  fold change (FC): 1.7
Staphylococcus aureus [32]
  Activity: inactive
Staphylococcus aureus [33]
  Activity: Active
Escherichia coli [34]
  inhibition at 8 µg/mL: 48.7%
